Experimental data: ChEMBL document CHEMBL1201862, “PubChem BioAssay data set” (2004)
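Where inhibition never reached the appropriate level, the endpoint shown equals the highest concentration tested. Otherwise, values were interpolated linearly from a five-concentration, 48-hour dose response in 96-well plates. GI50 = concentration required for 50% inhibition of growth.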 Calls of active or inactive are those of the source. Rule as the data show it: active = GI50 up to about 1.1 µM and inactive = higher.

What was measured:
Assay in all cases: NCI anticancer screen, dose series, 48 h
786-0 = system: 786-0
A549 = system: A549
COLO 205 = system: COLO 205
DU-145 = system: DU-145
HCC 2998 = system: HCC 2998
HCT-15 = system: HCT-15
IGROV-1 = system: IGROV-1
MDA-MB-435 = system: MDA-MB-435
OVCAR-5 = system: OVCAR-5
OVCAR-8 = system: OVCAR-8
RXF 393 = system: RXF 393
SF-295 = system: SF-295
SK-MEL-28 = system: SK-MEL-28
SNB-19 = system: SNB-19
SNB-75 = system: SNB-75
U-251 = system: U-251
UO-31 = system: UO-31
LOX IMVI = system: LOX IMVI
Malme-3M = system: Malme-3M
SK-MEL-2 = system: SK-MEL-2

Measured: GI50

Cc1ccc(/N=N/C(=N\c2ccc(Cl)cc2)c2ccc(N(CCC#N)CCC#N)cc2)cc1
inactive: 786-0 52 µM | A549 29.6 µM | COLO 205 17.4 µM | DU-145 37.7 µM | HCC 2998 18.8 µM | IGROV-1 30.3 µM | MDA-MB-435 19.1 µM | OVCAR-5 > 100 µM | OVCAR-8 63.8 µM | RXF 393 36.8 µM | SF-295 3.98 µM | SK-MEL-28 85.5 µM | SNB-19 > 100 µM | SNB-75 60.3 µM | U-251 25.2 µM | UO-31 6.89 µM
14.2 µM: HCT-15

O=C(CNc1ccccc1Cl)Nn1c(-c2ccccc2)nc2ccccc2c1=O
inactive: 786-0 19.7 µM | A549 44.8 µM | COLO 205 17.9 µM | DU-145 > 100 µM | HCC 2998 19.5 µM | IGROV-1 23.7 µM | LOX IMVI 14.7 µM | MDA-MB-435 18.5 µM | OVCAR-5 > 10 µM | OVCAR-8 40.7 µM | RXF 393 20.3 µM | SF-295 31.4 µM | SK-MEL-28 21.2 µM | SNB-19 > 10 µM | SNB-75 16.8 µM | U-251 17.4 µM | UO-31 47.1 µM

C#CCn1c(=O)ccn(/C(=C/C(=O)OCC)C(=O)OCC)c1=O
1.06 µM: HCT-15
inactive: 786-0 3.41 µM | A549 17.2 µM | COLO 205 1.81 µM | DU-145 13.8 µM | IGROV-1 4.21 µM | LOX IMVI 13.9 µM | MDA-MB-435 10.9 µM | Malme-3M 1.96 µM | OVCAR-5 7.13 µM | OVCAR-8 2.2 µM | RXF 393 1.36 µM | SF-295 24.6 µM | SK-MEL-28 7.41 µM | SK-MEL-2 15.2 µM | SNB-19 19 µM | SNB-75 20.8 µM | U-251 14.2 µM | UO-31 12.6 µM

[O-][N+]1(CC[N+]2([O-])CCCCC2)CCCCC1
> 100 µM: HCT-15
inactive: 786-0 > 100 µM | A549 > 100 µM | COLO 205 > 100 µM | DU-145 > 100 µM | IGROV-1 > 100 µM | LOX IMVI > 100 µM | MDA-MB-435 > 100 µM | Malme-3M > 100 µM | OVCAR-5 > 100 µM | OVCAR-8 > 100 µM | RXF 393 > 100 µM | SF-295 > 100 µM | SK-MEL-28 > 100 µM | SK-MEL-2 > 100 µM | SNB-19 > 100 µM | SNB-75 > 100 µM | U-251 > 100 µM | UO-31 > 100 µM

CC(=O)OCC(C)(COC(C)=O)N1C(=O)C2C3c4ccccc4C(c4ccccc43)C2C1=O (configuration not stated)
> 100 µM: HCT-15
inactive: 786-0 > 100 µM | A549 > 100 µM | COLO 205 > 100 µM | DU-145 > 100 µM | IGROV-1 > 100 µM | LOX IMVI > 100 µM | MDA-MB-435 > 100 µM | OVCAR-5 > 100 µM | OVCAR-8 > 100 µM | RXF 393 35.6 µM | SF-295 > 100 µM | SNB-19 > 100 µM | SNB-75 49.7 µM | U-251 > 100 µM | UO-31 > 100 µM

O=C1CSC2=NC3=C(COC/C3=C\c3ccc(F)cc3)C(c3ccc(F)cc3)N12 (configuration not stated)
37.2 µM: HCT-15
inactive: 786-0 59.4 µM | COLO 205 42.8 µM | DU-145 35.2 µM | HCC 2998 48.6 µM | IGROV-1 86.7 µM | LOX IMVI 52 µM | MDA-MB-435 65.2 µM | OVCAR-5 > 100 µM | OVCAR-8 55.7 µM | RXF 393 59.8 µM | SF-295 52.5 µM | SK-MEL-2 99.5 µM | SNB-19 94.2 µM | SNB-75 > 100 µM | U-251 63.7 µM | UO-31 38.4 µM

C/C=C/CC(C(=O)OCC)(N(C)C(=O)OC(C)(C)C)S(=O)(=O)c1ccc(C)cc1 (configuration not stated)
61.9 µM: HCT-15
inactive: 786-0 > 100 µM | A549 85.9 µM | COLO 205 68.1 µM | DU-145 > 100 µM | IGROV-1 68.7 µM | LOX IMVI > 100 µM | MDA-MB-435 25.7 µM | Malme-3M > 100 µM | OVCAR-5 > 100 µM | OVCAR-8 > 100 µM | RXF 393 > 100 µM | SF-295 63.7 µM | SK-MEL-28 > 100 µM | SK-MEL-2 51.6 µM | SNB-19 > 100 µM | U-251 81.5 µM | UO-31 > 100 µM

COc1cc2c(cc1OC)-c1[nH]c3ccc([N+](=O)[O-])cc3c1CC(=O)N2
active: COLO 205 0.325 µM | HCC 2998 1.04 µM
2.11 µM: HCT-15
inactive: 786-0 2.35 µM | A549 2.46 µM | DU-145 1.68 µM | IGROV-1 2.39 µM | LOX IMVI 1.55 µM | MDA-MB-435 1.71 µM | OVCAR-5 3.78 µM | OVCAR-8 2.82 µM | RXF 393 1.43 µM | SF-295 3.53 µM | SK-MEL-28 6.19 µM | SK-MEL-2 3.7 µM | SNB-19 6.84 µM | SNB-75 2.43 µM | U-251 3.32 µM | UO-31 2.36 µM

C[C@@H](c1ccccc1)N1CO[C@@]2(C#Cc3ccc4c(c3)OCO4)CCC[C@@H]12
12.6 µM: HCT-15
inactive: 786-0 17.8 µM | A549 14.8 µM | COLO 205 15.8 µM | DU-145 16.1 µM | HCC 2998 17.9 µM | IGROV-1 10.7 µM | LOX IMVI 12.7 µM | MDA-MB-435 13.7 µM | OVCAR-5 18.1 µM | OVCAR-8 14 µM | RXF 393 11.6 µM | SF-295 14.9 µM | SK-MEL-28 17.5 µM | SK-MEL-2 18.3 µM | SNB-19 16.1 µM | SNB-75 13.9 µM | U-251 13.6 µM | UO-31 14.4 µM

COc1ccc(-c2cc(-c3cc(F)c(Cl)cc3Cl)on2)cc1OC
5.42 µM: HCT-15
inactive: 786-0 63.8 µM | A549 30.8 µM | COLO 205 17.4 µM | DU-145 37.1 µM | IGROV-1 68.1 µM | LOX IMVI 31.2 µM | MDA-MB-435 1.8 µM | Malme-3M 45.3 µM | OVCAR-5 > 100 µM | OVCAR-8 72.3 µM | RXF 393 8.07 µM | SF-295 13.2 µM | SK-MEL-28 28.3 µM | SK-MEL-2 17.1 µM | SNB-19 > 100 µM | SNB-75 28.9 µM | U-251 25.9 µM | UO-31 95.9 µM

CCCCC(C(=O)N/N=C/c1ccc([N+](=O)[O-])o1)C(=O)N/N=C/c1ccc([N+](=O)[O-])o1
inactive: 786-0 2.11 µM | A549 17.7 µM | COLO 205 4.28 µM | DU-145 5.37 µM | IGROV-1 2.17 µM | LOX IMVI 1.84 µM | MDA-MB-435 5.7 µM | Malme-3M 2.2 µM | OVCAR-5 2.81 µM | OVCAR-8 2.05 µM | RXF 393 2.07 µM | SF-295 15.7 µM | SK-MEL-28 3.96 µM | SK-MEL-2 7.19 µM | SNB-19 3.64 µM | SNB-75 17.9 µM | U-251 2.74 µM | UO-31 1.99 µM
2.26 µM: HCT-15

Nc1ccc2c(c1)S(=O)(=O)c1cc(O)ccc1O2
inactive: 786-0 > 100 µM | A549 > 100 µM | COLO 205 > 100 µM | DU-145 > 100 µM | HCC 2998 > 100 µM | IGROV-1 > 100 µM | LOX IMVI > 100 µM | MDA-MB-435 > 100 µM | OVCAR-5 > 100 µM | OVCAR-8 > 100 µM | RXF 393 48.3 µM | SF-295 > 100 µM | SK-MEL-28 > 100 µM | SK-MEL-2 > 100 µM | SNB-19 > 100 µM | U-251 > 100 µM | UO-31 55.3 µM
> 100 µM: HCT-15

N#Cc1nc(C(CO)N(Cc2ccccc2)C(=O)O)oc1N (configuration not stated)
inactive: 786-0 > 100 µM | A549 > 100 µM | COLO 205 > 100 µM | DU-145 > 100 µM | HCC 2998 > 100 µM | IGROV-1 > 100 µM | LOX IMVI > 100 µM | MDA-MB-435 > 100 µM | OVCAR-5 > 100 µM | OVCAR-8 > 100 µM | RXF 393 > 100 µM | SF-295 > 100 µM | SK-MEL-28 > 100 µM | SK-MEL-2 > 100 µM | SNB-75 > 100 µM | U-251 > 100 µM | UO-31 > 100 µM
> 100 µM: HCT-15

C(=C/c1ccc2nc(-c3ccc(/C=C/C=N/NC4=NCCCN4)cc3)cn2c1)/C=N/NC1=NCCCN1
inactive: 786-0 42.9 µM | A549 10.3 µM | COLO 205 > 100 µM | DU-145 17.5 µM | HCC 2998 45.4 µM | IGROV-1 31.5 µM | MDA-MB-435 26.1 µM | OVCAR-5 49.9 µM | OVCAR-8 17.6 µM | RXF 393 23.8 µM | SF-295 > 100 µM | SK-MEL-28 > 100 µM | SK-MEL-2 > 100 µM | SNB-19 89.7 µM | SNB-75 35.7 µM | U-251 16.1 µM | UO-31 > 100 µM
> 100 µM: HCT-15

CC(C)[Si](Oc1cc2c3c(ccc2c(O)c1[C@@H](C)CO[Si](C)(C)C(C)(C)C)C(C)(C)CCC3)(C(C)C)C(C)C
> 100 µM: HCT-15
inactive: 786-0 > 100 µM | A549 > 100 µM | COLO 205 > 100 µM | DU-145 > 100 µM | IGROV-1 87.5 µM | LOX IMVI 64.4 µM | MDA-MB-435 > 100 µM | Malme-3M 22.6 µM | OVCAR-5 > 100 µM | OVCAR-8 > 100 µM | RXF 393 > 100 µM | SF-295 92.3 µM | SK-MEL-28 > 100 µM | SK-MEL-2 > 100 µM | SNB-19 > 100 µM | SNB-75 69.8 µM | U-251 > 100 µM | UO-31 > 100 µM
